Molecules are shown by their SMILES.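 How tested: cells in 96-well plates exposed to compound for 48 hours at five concentrations. At the GI50, growth is halved. TGI is the concentration that stops growth completely.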

What is called GI50 is the concentration at which growth is held to half of that of the control. One may read the TGI as the concentration giving total growth inhibition. Read a high TGI as less potent growth arrest.

Some test systems named below: CAKI-1 renal; HOP-92 NSCLC; MOLT-4 leukemia; OVCAR-3 ovarian; OVCAR-4 ovarian; OVCAR-5 ovarian; T-47D breast; UACC-257 melanoma; UO-31 renal; HL-60(TB) leukemia.
What all share (test): DTP human tumour cell line panel, 48 h

As for `O=C1OCC(C#Cc2ccccc2)=C1Cl`, the GI50 with CAKI-1 renal was 3.27 µM; in the assay on HOP-92 NSCLC, 2.14 µM; with MOLT-4 leukemia, 14.3 µM; with OVCAR-3 ovarian, 1.9 µM; in the assay on OVCAR-4 ovarian it was 15.5 µM; with OVCAR-5 ovarian, 3.59 µM. Also, the GI50 with T-47D breast is 12.6 µM; in the assay on UACC-257 melanoma it was 4.34 µM; in the assay with UO-31 renal, 2.15 µM. The TGI stood at 26.7 µM with CAKI-1 renal; 6.84 µM with HOP-92 NSCLC; 46.1 µM with MOLT-4 leukemia; 10.8 µM in the assay with OVCAR-3 ovarian; 73.1 µM with OVCAR-4 ovarian; 15 µM in the assay with OVCAR-5 ovarian. Besides, the TGI was 30.3 µM with T-47D breast, 40.2 µM in the assay on UACC-257 melanoma and greater than 100 µM in the assay with UO-31 renal.
On to `COC(=O)NCCc1[nH]nc2c1C(=O)C=C(Nc1ccccc1)C2=O`, for which the TGI in the assay on CAKI-1 renal was greater than 100 µM; in the assay on HL-60(TB) leukemia, 46.3 µM; with HOP-92 NSCLC, 95.5 µM; with MOLT-4 leukemia, 54.4 µM; in the assay on OVCAR-3 ovarian, greater than 100 µM; in the assay on OVCAR-4 ovarian, 72 µM. Moreover, the TGI in the assay on OVCAR-5 ovarian was greater than 100 µM; with T-47D breast, greater than 100 µM; in the assay with UACC-257 melanoma, 32.3 µM; with UO-31 renal, greater than 100 µM.
In the case of `O=C(/C=C/c1ccc(O)c(O)c1)OCCc1cccc2ccccc12`, the TGI in the assay with CAKI-1 renal was 20.7 µM; in the assay on HL-60(TB) leukemia it was 3.52 µM; in the assay on HOP-92 NSCLC, 23.8 µM; in the assay on MOLT-4 leukemia, 12.3 µM; in the assay on OVCAR-3 ovarian it was 14.1 µM; in the assay with OVCAR-4 ovarian, 23.9 µM. Further, the TGI in the assay on OVCAR-5 ovarian was found to be 31.7 µM; in the assay on T-47D breast, 42.3 µM; in the assay with UACC-257 melanoma, 28.2 µM; in the assay on UO-31 renal it was 18.4 µM.
As to `CCC1CC2CN3CCc4c([nH]c5c(-c6c(OC)ccc7c8c([nH]c67)[C@]6(C(=O)OC)CC7CC(CC)C6N(CC8)C7)c(O)ccc45)[C@](C(=O)OC)(C2)C13` (stereo partly specified), the TGI was 25.2 µM with CAKI-1 renal; 26.6 µM in the assay on HOP-92 NSCLC; 16.7 µM in the assay with MOLT-4 leukemia; 30.9 µM in the assay on OVCAR-3 ovarian; 33.2 µM with OVCAR-5 ovarian; 23 µM in the assay on T-47D breast. In addition, the results for the TGI in the assay on UACC-257 melanoma and in the assay on UO-31 renal were 47.2 µM and 27.1 µM, respectively.
For the compound `CC[C@@]1(O)C(=O)OCc2c1cc1n(c2=O)Cc2c-1nc1ccccc1c2CC[Si](C)(C)C`, the TGI in the assay with CAKI-1 renal is 0.207 µM; in the assay on HL-60(TB) leukemia, greater than 100 µM; in the assay on HOP-92 NSCLC, greater than 100 µM; with OVCAR-3 ovarian, 1.4 µM; with OVCAR-5 ovarian, 6.59 µM; with T-47D breast, greater than 27.7 µM. This compound registered a TGI in the assay with UO-31 renal of 0.056 µM.
For `Cc1nn(C(=O)c2ccc(Cl)cc2)c2c1C(c1ccc([N+](=O)[O-])cc1)SC(N)=N2` (stereo unspecified), the TGI in the assay on CAKI-1 renal, in the assay with HL-60(TB) leukemia, in the assay on HOP-92 NSCLC, in the assay on MOLT-4 leukemia, with OVCAR-3 ovarian and with OVCAR-4 ovarian was greater than 10 µM each time. The TGI in the assay with OVCAR-5 ovarian, in the assay with T-47D breast and in the assay on UACC-257 melanoma was greater than 10 µM throughout.
In the case of `N#CCC(=O)Nn1c(CC#N)nnc1Cc1ccccc1`, the TGI with CAKI-1 renal, in the assay on HL-60(TB) leukemia, in the assay on HOP-92 NSCLC, in the assay with MOLT-4 leukemia, in the assay on OVCAR-3 ovarian and with OVCAR-5 ovarian was greater than 100 µM in each case. The TGI with T-47D breast, in the assay on UACC-257 melanoma and with UO-31 renal was greater than 100 µM each time.
In the case of `CC1CCCC2=C1C(c1ccc(Cl)cc1)n1c(s/c(=C\c3ccc(Cl)cc3)c1=O)=N2` (stereo unspecified), the TGI with CAKI-1 renal, with HOP-92 NSCLC, in the assay with OVCAR-5 ovarian, with T-47D breast, with UACC-257 melanoma and in the assay on UO-31 renal was greater than 100 µM each time.
Regarding `COc1ccc(/C=C2\CSC/C(=C\c3ccc(OC)c(OC)c3OC)C2=O)c(OC)c1OC`, the TGI is 72.1 µM in the assay with HL-60(TB) leukemia; 96.1 µM in the assay on HOP-92 NSCLC; greater than 100 µM in the assay on OVCAR-3 ovarian; greater than 100 µM with OVCAR-5 ovarian; greater than 100 µM with T-47D breast; greater than 100 µM with UACC-257 melanoma. In the assay on UO-31 renal, the TGI was greater than 100 µM.
Regarding `O=C(c1cc(Cl)cc(Cl)c1)N(C(=S)OC12CC3CC(CC(C3)C1)C2)c1ccccc1`, the TGI with CAKI-1 renal was greater than 100 µM; in the assay on HL-60(TB) leukemia, 84.5 µM; with HOP-92 NSCLC, greater than 100 µM; in the assay with OVCAR-3 ovarian, greater than 100 µM; with OVCAR-4 ovarian it was greater than 100 µM; in the assay with OVCAR-5 ovarian, greater than 100 µM. Besides, the TGI in the assay on T-47D breast is greater than 100 µM; with UACC-257 melanoma, greater than 100 µM; in the assay on UO-31 renal, 82.8 µM.
For `COC(=O)C1=Nc2c(C)nn(-c3ccccc3)c2N=C(c2ccc(C)cc2)C1`, the TGI with CAKI-1 renal, with HL-60(TB) leukemia, in the assay on HOP-92 NSCLC, in the assay with MOLT-4 leukemia, with OVCAR-3 ovarian and in the assay with OVCAR-4 ovarian was greater than 10 µM in each case. Besides, the TGI in the assay with T-47D breast and in the assay with UACC-257 melanoma was greater than 10 µM each time.
Take `C=C(C=O)c1c2c(nc3ccccc13)C(=O)c1ccccc1C2=O`: the TGI with CAKI-1 renal is 0.795 µM; in the assay with HL-60(TB) leukemia, 15.9 µM; with HOP-92 NSCLC it was 5.23 µM; in the assay on MOLT-4 leukemia it was 0.997 µM; in the assay with OVCAR-3 ovarian, 2.35 µM; with OVCAR-5 ovarian, 4.92 µM. The values for the TGI with T-47D breast and with UO-31 renal were 3.29 µM and greater than 29 µM, respectively.
With `CCc1n[nH]c(=O)n1N1C(=O)C2CC=CCC2C1=O` (stereo unspecified), the TGI with CAKI-1 renal, with HOP-92 NSCLC, in the assay with MOLT-4 leukemia, in the assay on OVCAR-3 ovarian, in the assay on OVCAR-4 ovarian and in the assay with OVCAR-5 ovarian was greater than 100 µM in each case. Further, the TGI with T-47D breast, in the assay on UACC-257 melanoma and in the assay on UO-31 renal was greater than 100 µM in each case.
As to `O=C1CCCc2c1c1c(n2Cc2ccccc2)-c2ccccc2C1=O`, the TGI was 46.2 µM in the assay on CAKI-1 renal; 58.7 µM with HL-60(TB) leukemia; 99.7 µM with HOP-92 NSCLC; 36.7 µM with OVCAR-3 ovarian; 36.5 µM in the assay with OVCAR-4 ovarian; greater than 100 µM in the assay on OVCAR-5 ovarian. Also, the TGI in the assay on T-47D breast was 33.3 µM; in the assay with UACC-257 melanoma, 32.1 µM; with UO-31 renal it was greater than 100 µM.
For `CC(=O)Nc1ncc(Sc2ccccc2C(=O)O)s1`, the TGI in the assay on CAKI-1 renal, in the assay on HL-60(TB) leukemia, in the assay with HOP-92 NSCLC, in the assay on MOLT-4 leukemia, with OVCAR-3 ovarian and in the assay on OVCAR-5 ovarian was greater than 100 µM throughout. Further, the TGI with T-47D breast, in the assay on UACC-257 melanoma and in the assay with UO-31 renal was greater than 100 µM each time.
